Results on 3 compounds are retold here after patent publication US9918966B2, “Anti-cancer compositions and methods” (The Penn State Research Foundation, priority 2013, dated 2018).

Read-outs that look alike come from different tables or passages of the source.

Data set [1] deals with FF2441 human fibroblast cells. Nature of the data set: Cell viability, MTS assay. The class given is cell-based. How it is done:
(§1) Cell viability, proliferation, apoptosis and cell cycle analysis: Viability and IC50 (μmol/L) of normal human melanocytes, fibroblast and melanoma cells following treatment with inhibitors are measured using the MTS assay (Promega, Madison, Wis.) described in Sharma A, et al., Clin Cancer Res 2009; 15:1674-85; and Madhunapantula S V, et al., Mol Cancer Ther 2008; 7:1297-308. […] IC50 values for each inhibitor in μmol/L for respective cell lines are measured from three independent experiments using GraphPad Prism version 4.01 (GraphPad Software, La Jolla, Calif.).
(§2) The number of viable cells is measured using MTS and percentage decrease in viability calculated. IC50 values for each inhibitor in μmol/L for respective cell lines are measured from three independent experiments using GraphPad Prism version 4.01 (GraphPad Software, La Jolla, Calif.).
(Tetrazolium assays rely on reduction of a dye to a coloured formazan, in cell work by metabolically active cells.)

Data set [2] has as its system FOM103 normal human melanocytes. Nature of the data set: Cell viability, MTS assay. The class given is cell-based. To be noted: Melanocyte. How it is done:
as §1, §2

Data set [3] has as its system WM115 vertical growth phase melanoma cells. The data set can be described thus: Cell viability, MTS assay. It is filed as cell-based. The conditions noted are these: Homo sapiens, WM-115. How it is done: as §1, §2
Data set [4] relates to WM35 radial growth phase melanoma cells. Nature of the data set: Cell viability, MTS assay. It is filed as cell-based. To be noted: Homo sapiens. Here is the method:
as §1, §2

In data set [5] the test system is 1205 Lu metastatic melanoma cells. Nature of the data set: cells. The conditions noted are these: Homo sapiens. How it is done: as §1, §2
The test system of data set [6] is UACC 903 metastatic melanoma cells. The data set can be described thus: cells. The conditions noted are these: Homo sapiens. How it is done: as §1, §2
Another data set deals with Caco-2 (Colon). Nature of the data set: IC50 for killing cancer cells. The class given is cell-based. To be noted: Homo sapiens. The text has this: (§3) Therapeutic universality of selenocoxib-1-GSH for killing cancer cells is examined by treating pancreatic (MiaPaca-2), breast (MDA-MB-231), prostate (PC-3) or sarcoma (HT-1080) and colon (Caco2) cell. lines with the drug and establishing the IC50 for each cell line, Table III. Selenocoxib-1-GSH kills the various cancer cell lines at 2-3-fold lower concentrations than normal fibroblast cells.

For the next data set, the system named is HT-1080 (Fibro sarcoma). Nature of the data set: IC50 for killing cancer cells. It is filed as cell-based. The conditions noted are these: Homo sapiens.
Description: as §3

The next data set concerns MDA-MB-231 (Breast). Nature of the data set: IC50 for killing cancer cells. It is filed as cell-based. To be noted: Homo sapiens.
Description: as §3

The subject of the next data set is MiaPaca-2 (Pancreas). Nature of the data set: IC50 for killing cancer cells. The class given is cell-based. To be noted: Homo sapiens, MIA PaCa-2.
Description: as §3

In another data set the test system is PC-3 (Prostate). Nature of the data set: IC50 for killing cancer cells. The class given is cell-based. The conditions noted are these: Homo sapiens.
Description: as §3

The next data set relates to 1205 Lu melanoma cells. Nature of the data set: Western blot analysis. It is filed as cell-based, human. The conditions noted are these: 2.5-50 μmol/L for 48 h. The text has this:
(§4) Cell lysates are harvested and processed as described in Sharma A et al., Cancer Res 2006, 66:8200-9. […] Protein lysates are collected for Western blotting. Blots are probed with total and phospho-Akt (Ser473), phospho-PRAS40 (Thr246), phospho-Erk1/2 (Thr202/Tyr204), total and Phospho-Mek1/2 (Ser217) and cleaved PARP from Cell Signaling Technology (Danvers, Mass.). Total PRAS40 from Invitrogen (Carlsbad, Calif.). Total Erk, cyclin D1, p27, Alpha-enolase and secondary antibodies conjugated with horseradish peroxidase from Santa Cruz Biotechnology (Santa Cruz Biotechnology, Santa Cruz, Calif.). COX-1 and COX-2 antibodies were obtained from Cayman Chemical Company, Ann Arbor, Mich. Immunoblots are developed using the enhanced chemiluminescence detection system (Amersham Pharmacia Biotech, Piscataway, N.J.).
In general terms: In western blotting, separated proteins are transferred to a membrane and probed.

In another data set the test system is UACC 903 melanoma cells. The data set can be described thus: Western blot analysis. It is filed as cell-based, human. To be noted: UACC 903, 2.5-50 μmol/L for 48 h.
Description: as §4

The conditions of data set [7]: for Mortality at Day 7: 3 mice/group. The source says: Number of mice surviving and changes in body weight after 7 days of drug treatment is scored (Table I).
The mark [8] stands for this setting: 0.032 μmoles (2.5 PPM) intraperitoneally daily for seven days.

Take `Cc1ccc(-c2cc(C(F)(F)F)nn2-c2ccc(S(N)(=O)=O)cc2)cc1` [Celecoxib, reference compound]: the IC50 (commonly the concentration that gives 50% inhibition) in [1] (FF2441, 24 h) was more than 100 µM; in data set [1] (FF2441, 48 h), more than 100 µM; in data set [1] (FF2441, 72 h) it was 65.3 ± 3.3 µM; in [2] (FOM103, 24 h) it was more than 100 µM; in data set [2] (FOM103, 48 h), more than 100 µM; in [2] (FOM103, 72 h), 68 ± 1.2 µM. Further, the IC50 was determined as 54.4 ± 3.6 µM in [3] (WM115, 24 h); 45.3 ± 2.7 µM in [3] (WM115, 48 h); 41.8 ± 2.9 µM in data set [3] (WM115, 72 h); 51.3 ± 2.3 µM in data set [4] (WM35, 24 h); 42.3 ± 1.8 µM in data set [4] (WM35, 48 h); 37.9 ± 3.3 µM in [4] (WM35, 72 h). Also, the IC50 is more than 100 µM in [5] (24 h); 83.6 ± 3.3 µM in data set [5] (48 h); 66.1 ± 3.2 µM in data set [5] (72 h); more than 100 µM in data set [6] (UACC-903, 24 h); more than 100 µM in [6] (UACC-903, 48 h); 76.6 ± 4.4 µM in data set [6] (UACC-903, 72 h). For the same compound, the IC50 with Caco-2 (Colon), in the data set on HT-1080 (Fibro sarcoma), in the data set on MDA-MB-231 (Breast), in the data set with MiaPaca-2 (Pancreas) and with PC-3 (Prostate) was more than 100 µM in each case.

For the compound `N#CC(=C(/N)Sc1ccccc1N)/C(C#N)=C(\N)Sc1ccccc1N` [U0126, reference compound], in the data set with 1205 Lu melanoma cells, the COX-1 expression entry is “without affecting COX-1”, the COX-2 expression result was “reduces the expression of COX-2” and the “Levels of pErk1/2” value is on record as “similarly decrease”. In the data set on UACC 903 melanoma cells, the COX-1 expression entry is listed as “without affecting COX-1”, the COX-2 expression result is listed as “reduces the expression of COX-2” and the “Levels of pErk1/2” value is given as “similarly decrease”.

For Selenocoxib-1, the “% of weight loss” value in data set [7] (setting [8]) is recorded as 14.07%; in [7] (0.032 μmoles (2.5 PPM) intraperitoneally daily for seven days, listed as selenocoxib-1) it was 14%. Moreover, the “Mortality at Day 7” value in data set [7] (setting [8]) is reported as 0/3; in data set [7] (0.064 μmoles (5.0 PPM) intraperitoneally daily for seven days), 3/3. In data set [7] (concentrations of 0.032-0.064, after seven days of treatment), this compound showed an animal mortality of 100%.
